Assay results reported in patent US11629174B2, “Cryptic metabolites and method for activating silent biosynthetic gene clusters in actinomycete bacteria” (The Trustees of Princeton University, priority 2017, dated 2023).

What was measured:
Gene cluster 2631 = assay: HiTES in S. erythraea, gene cluster 2631; format: cell-based; settings: FIG. 10
Gene cluster 2875 = assay: HiTES in S. erythraea, gene cluster 2875; format: cell-based; settings: FIG. 11
Gene cluster 4143 = assay: HiTES in S. erythraea, gene cluster 4143; format: cell-based; settings: FIG. 12
Gene cluster 4286 = assay: HiTES in S. erythraea, gene cluster 4286; format: cell-based; settings: FIG. 13
Gene cluster 4477 = assay: HiTES in S. erythraea, gene cluster 4477; format: cell-based; settings: FIG. 14
Gene cluster 3648 = assay: HiTES in S. avermitilis, gene cluster 3648; format: cell-based; settings: FIGS. 16 and 17
SAV3643 and SAV3665 = assay: RT-qPCR of SAV3643 and SAV3665 in cluster 3648; format: cell-based, S. avermitilis; settings: 5 ug/mL, relative to untreated samples
S. avermitilis = assay: Growth inhibition of S. avermitilis by elicitor; format: cell-based; settings: dose-response series in 2.5 ug/mL steps
sur cluster = assay: High-throughput elicitor screen (HiTES), eGFPx3 reporter strains of the sur cluster; format: cell-based, Streptomyces albus J1074; settings: attB::Psur-eGFPx3 and surE::eGFPx3, ~33 μM, 60 h, hit threshold 2.5-fold eGFP fluorescence
Description: These next four steps are seen be referring to the previously described example. In the previously described example, HiTES was carried out using the two constructs seen in FIGS. 2B and 2C with a ˜500-member natural products library. Each S. albus construct was grown in a 96-well format, supplemented with the compound library, and the effect of each compound on the silent BGC determined using eGFP-derived fluorescence. Interference from naturally fluorescent compounds in the library was eliminated by subtracting the […], immediately after addition of the library members.
Referring to FIGS. 3A and 3B, results for both genetic constructs are shown. These graphs show relative expression of a neutral site reporter, attB::Psur-eGFPx3 (FIG. 3A) or targeted sur reporter, surE::eGFPx3 (FIG. 3B) as a function of exogenously-supplied small molecules. Each bar represents the level of expression of sur in the presence of a single candidate elicitor. Plus signs denote the positive control, attB::PermE-eGFPx3. Minus signs denote the negative controls, attB::Psur-eGFPx3 (3A) or surE::eGFPx3 (3B) in the absence of any metabolites. The expression has been normalized to the positive control.
In this example, the threshold amount was a 2.5 fold induction of eGFP-derived fluorescence emission. Thus, hits were considered those that gave at least a 2.5-fold induction of eGFP-derived fluorescence emission. However, in other embodiments, hits may be those giving at least a 2 fold induction, more preferably at least a 3 fold induction, and more preferably at least a 4 fold induction.
Seed cultures for the reporter strains sur::eGFPx3, attB::Psur-eGFPx3, negative control wild-type, and positive control attB::PermE-eGFPx3 inoculated by transferring fresh spores (˜10^7) into 20 mL of YEME medium (per L: 3% (w/v) yeast extract, 5% peptone, 3% malt extract, 1% glucose and 10.7% sucrose, and 5 mM MgCl2.6H2O) in a 125 mL Erlenmeyer flask equipped with stain-less steel springs. The cultures were grown at 30° C. and 250 rpm for 3 days. Mycelia from each of the four cultures were collected by centrifugation (10 min, 3000 g, RT) and diluted into 150 mL of R4 medium to give a final concentration of 0.05% (w/v). R4 medium consisted of (per L) 0.5% (w/v) glucose, 0.1% yeast extract, 0.5% MgCl2.6H2O, 0.2% CaCl2.2H2O, 0.15% proline, 0.118% valine, 0.28% TES, 50 mg/L casamino acid, 100 mg/L K2SO4, and 1× trace element solution, which contains 40 mg/L ZnCl2, 200 mg/L FeCl3.6H2O, 10 mg/L CuCl2.2H2O, 10 mg/L MnCl2.4H2O, 10 mg/L Na2B4O7.10H2O, and 10 mg/L (NH4)6Mo7O24.4H2O).
Subsequently, the two reporter strains (sur::eGFPx3 and attB::Psur-eGFPx3) were each dispensed into 5× sterile, clear-bottom 96-well plates (150 μL per well) using a MultiFlo Microplate Dispenser (BioTek). A separate sterile 96-well separate plate was prepared for positive and negative controls; it contained the negative control (wt S. albus J1074) in columns 1-3, sur::eGFPx3 in columns 4-6, attB::Psur-eGFPx3 in columns 7-9, and the positive control attB::PermE-eGFPx3 in columns 10-12 of the plate. No elicitors were added to the control plates. […] Upon additional of the compound library, t=0 fluorescence reads were recorded on a Synergy H1MF plate reader (BioTek) using Aex=485 nm and Aem=505-650 nm in 5 nm steps. […]

surA and surC = assay: RT-qPCR of surA and surC transcripts in wt S. albus; format: cell-based, Streptomyces albus J1074
Description: In the example above, the effects of these putative elicitors on the sur cluster were validated by performing a RT-qPCR with wt S. albus. Upon exposure of S. albus to each elicitor or DMSO (control), total RNA was be isolated, converted to cDNA and the surA and surC transcripts quantified by qPCR. […] To further verify the effect of 1 and 2, a dose-response assay was carried out. With both elicitors, a concentration-dependent induction of sur was observed, yielding optimal upregulation at a final concentration of ˜23 μM (etoposide) and −30 μM (ivermectin) (FIG. 4B). These concentrations induced a ˜10-fold (etoposide) and 4.5-fold (ivermectin) upregulation of surC.
All operations involving RNA utilized a dedicated RNase-free work area. To commence the experiment, seed cultures of wt S. albus J1074 were prepared by inoculating 3 ml of TSBY medium (3% (w/v) tryptic soy broth and 0.5% yeast extract) in a sterile 14 ml bacterial culture tube with freshly-prepared spores (˜10^7). The culture was incubated at 30° C. and 250 rpm in an Ecotron Shaker (ATR). After 48 hours cultivation, the cells were collected by centrifugation and subsequently diluted to a final concentration of 0.05% (w/v) in 250 ml Erlenmeyer flask containing 50 ml of R4 medium. Desired elicitors were added to final concentrations indicated in the figures (typically 1-100 μM), and the cultures were incubated at 30° C. and 250 rpm. After 48 h, 1 ml was removed from each sample and transferred to a 1.5 ml RNase-free Eppendorf tube (Ambion). Each sample was centrifuged (16,000 g, 3 min) to collect the cells, the supernatant discarded, the cells flash-frozen in liquid N2, and stored at −80° C.
RNA isolation was carried out using the Qiagen RNeasy kit following the manufacturer's instructions without modifications. Upon isolation, contaminating DNA was removed using the DNA-free kit (Ambion) according to manufacturer's instructions. Gel electrophoreses subsequently confirmed RNA integrity (FIG. S2). Finally, total RNA was converted into cDNA via the PrimeScript™ RT reagent Kit (Takara) using random hexamers as primers and 500 ng of each RNA sample as template.
Three genes (surA, surC and surR) were chosen for quantification by RT-qPCR. The primers were designed using primer-3-plus software available online. The primers were carefully chosen to give an amplicon length of 130-160 bp and a melting temperature of 60° C., though this was later optimized (see below and Table 2). The primers were chosen to vary in length between 18-22 bp, and, if possible, to contain a single G/C clamp at the 3′ end. To ensure optimal qPCR parameters, the genomic DNA of S. albus J1074 was isolated using the Wizard genomic DNA purification kit (Promega), and each amplicon was subsequently amplified using standard PCR conditions with a high-fidelity, proof-reading Q5 DNA polymerase (NEB). The PCR reactions were then separated on a 1.2% agarose gel, the amplicon excised, and gel-extracted with the Gel Extraction kit (Qiagen). The extracted DNA was used to optimize qPCR conditions. Using the amplicon template, the primer concentrations were first varied followed by the annealing/extension temperatures, which ranged from 58-68° C. in eight steps. The combination that gave the lowest quantification cycle (Cq) was used in the experiments (Table 2). The Cq was obtained with an automatic baseline determined by the CFX Manager Software (Bio-Rad). As positive controls, these standards were included in every plate that contained the experimental samples, along with no-DNA controls, in duplicates.
qPCR analysis was performed on a CFX96 Real-Time PCR Detection System (Bio-Rad) consisting of a C1000 Thermal Cycler and a CFX96 Real-Time System. The reaction was carried out in hard-shell, clear 96-well qPCR plates (Bio-Rad) and utilized the iTaq Universal SYBR Green Supermix (Bio-Rad). […]

S. albus = assay: Anti-bacterial effect of elicitor on the producing strain; format: cell-based, Streptomyces albus J1074; settings: at high concentrations

CC1(C)CCC2=C(O1)c1ccccc1C(=O)C2=O [beta-Lapachone]
elicitor of gene cluster 2631 (ranking) (Gene cluster 2631): top three elicitors | elicitor of gene cluster 2875 (ranking) (Gene cluster 2875): top two elicitors | elicitor of gene cluster 4143 (ranking) (Gene cluster 4143): top three elicitors | elicitor of gene cluster 4286 (ranking) (Gene cluster 4286): top three elicitors | elicitor of gene cluster 4477 (ranking) (Gene cluster 4477): top three elicitors

CN[C@@H]1[C@H](O)[C@H](NC)[C@H]2O[C@@]3(O)C(=O)C[C@@H](C)O[C@H]3O[C@@H]2[C@H]1O [Spectinomycin]
elicitor of gene cluster 3648 (ranking) (Gene cluster 3648): top four elicitors | upregulation of SAV3643 and SAV3665 (SAV3643 and SAV3665): 40-50 fold | concentration that inhibited growth (S. avermitilis): greater than 7.5 ug/mL

COc1cc([C@@H]2c3cc4c(cc3[C@@H](O[C@@H]3O[C@@H]5CO[C@@H](C)O[C@H]5[C@H](O)[C@H]3O)[C@H]3COC(=O)[C@H]23)OCO4)cc(OC)c1O [etoposide]
induction of the sur cluster in both reporter strains (hit ranking) (sur cluster): best hits | upregulation of surC (surA and surC; at the optimal elicitor concentration, vs DMSO): ~10 fold | final concentration yielding optimal upregulation of sur (surA and surC; dose-response, RT-qPCR): ~23 µM | induction of surA and surC (surA and surC; mRNA vs DMSO control, wt S. albus): 3 fold | anti-bacterial effect on S. albus (S. albus): had anti-bacterial effects on S. albus
